Experimental data reported in US9938269B2, “Inhibitor compounds of phosphodiesterase type 10A” (ABBVIE INC., priority 2011, dated 2018).
Where a name gives a salt, the structure may show the parent alone.

What was measured:
[1] = biological target: T1, PDE10A (human) (Homo sapiens, UniProt Q9Y233); assay: Measurement of PDE activity (HTRF cAMP kit), human PDE10A; format: biochemical; settings: PDE enzymatic reaction, substrate 20 nM for PDE10, 60 minutes at 29 C
T1 construct: purchased BPS Bioscience
T1 sequence (Q9Y233 whole entry): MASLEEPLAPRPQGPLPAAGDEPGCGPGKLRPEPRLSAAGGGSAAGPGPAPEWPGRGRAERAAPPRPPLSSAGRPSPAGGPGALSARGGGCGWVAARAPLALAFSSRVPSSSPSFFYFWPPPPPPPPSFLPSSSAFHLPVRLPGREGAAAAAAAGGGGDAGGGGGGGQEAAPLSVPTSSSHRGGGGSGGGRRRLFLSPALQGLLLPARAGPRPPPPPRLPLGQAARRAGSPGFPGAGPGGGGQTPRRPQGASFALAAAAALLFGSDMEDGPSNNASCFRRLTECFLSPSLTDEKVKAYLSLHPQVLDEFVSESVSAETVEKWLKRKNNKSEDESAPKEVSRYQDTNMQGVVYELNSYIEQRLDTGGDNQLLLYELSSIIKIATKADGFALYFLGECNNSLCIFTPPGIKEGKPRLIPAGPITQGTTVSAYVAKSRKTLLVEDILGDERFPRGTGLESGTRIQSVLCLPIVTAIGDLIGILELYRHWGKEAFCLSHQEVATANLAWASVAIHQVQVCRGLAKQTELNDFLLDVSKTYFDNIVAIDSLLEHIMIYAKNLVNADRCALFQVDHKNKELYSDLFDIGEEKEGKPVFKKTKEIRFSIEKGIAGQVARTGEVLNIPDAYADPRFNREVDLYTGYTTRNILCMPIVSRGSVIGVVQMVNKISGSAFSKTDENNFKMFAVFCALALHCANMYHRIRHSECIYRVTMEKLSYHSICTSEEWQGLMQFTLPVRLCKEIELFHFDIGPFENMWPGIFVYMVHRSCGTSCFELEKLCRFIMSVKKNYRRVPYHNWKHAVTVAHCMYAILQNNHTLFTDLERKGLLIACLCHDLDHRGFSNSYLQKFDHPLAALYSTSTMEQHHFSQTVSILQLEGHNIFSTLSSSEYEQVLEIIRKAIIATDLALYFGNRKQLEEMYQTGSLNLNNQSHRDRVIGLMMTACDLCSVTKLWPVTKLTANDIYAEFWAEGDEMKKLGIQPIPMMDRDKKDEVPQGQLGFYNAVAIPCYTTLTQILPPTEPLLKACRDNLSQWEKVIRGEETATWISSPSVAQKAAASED
Summary of the method: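 HTRF detection of cAMP left after hydrolysis, expressed as percent of uninhibited control to derive IC50. Reaction: serially diluted inhibitor mixed with recombinant enzyme, started with 20 nM cAMP, 60 min at 29 °C in Tris-HCl pH 7.5 buffer containing MgCl2 and BSA.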

[2] = Determination of the microsomal half-life, rat liver microsomes; settings: rat, liver microsomes, pH 7.4
Protocol: The test substances were incubated in a concentration of 0.5 μM as follows:
0.5 μM test substance are preincubated together with liver microsomes from different species (from rat, human or other species) (0.25 mg of microsomal protein/10 in 0.05 M potassium phosphate buffer of pH 7.4 in microtiter plates at 37° C. for 5 min. The reaction is started by adding NADPH (1 mg/mL). After 0, 5, 10, 15, 20 and 30 min., 50 μl aliquots are removed, and the reaction is immediately stopped and cooled with the same volume of acetonitrile. The samples are frozen until analyzed. The remaining concentration of undegraded test substance is determined by MSMS. The half-life (T½) is determined from the gradient of the signal of test substance/unit time plot, it being possible to calculate the half-life of the test substance, assuming first order kinetics, from the decrease in the concentration of the compound with time. The microsomal clearance (mCl) is calculated from mCl=ln 2/T½/(content of microsomal protein in mg/ml)×1000 [ml/min/mg]

[3] = Determination of the microsomal half-life, human liver microsomes; settings: human, liver microsomes, pH 7.4

Compound	IC50 [1]	microsomal CLint at 0.5 μM [2]	microsomal CLint at 0.5 μM [3]
Cn1c(CCN2Cc3cccc(N4CCS(=O)(=O)CC4)c3C2=O)nc2ccccc21 [Example 184, 7-(1,1-Dioxothiomorpholin-4-yl)-2-[2-(1-methyl-1H-benzoimidazol-2-yl)-ethyl]-2,3-dihydro-isoindol-1-one trifluoroacetate]	< 100 nM	< 100 µL/min/mg	100 to 220 µL/min/mg
COc1ccc(-c2cccnc2)c2c1CN(CCc1ccc3ccccc3n1)C2=O [Example 185, 4-Methoxy-7-pyridin-3-yl-2-(2-quinolin-2-yl-ethyl)-2,3-dihydro-isoindol-1-one trifluoroacetate]	< 100 nM	100 to 220 µL/min/mg	> 220 µL/min/mg
CN(C)Cc1ccc(-c2cccc3c2C(=O)N(CCc2ccc4ccccc4n2)C3)cc1 [Example 188, 7-(4-Dimethylaminomethyl-phenyl)-2-(2-quinolin-2-yl-ethyl)-2,3-dihydro-isoindol-1-one (dihydrochloride)]	200 to 500 nM	100 to 220 µL/min/mg	100 to 220 µL/min/mg
COc1ccc(N2CCS(=O)(=O)CC2)c2c1CN(CCc1ccc3ccccc3n1)C2=O [Example 189, 7-(1,1-Dioxo-thiomorpholin-4-yl)-4-methoxy-2-(2-quinolin-2-yl-ethyl)-2,3-dihydro-isoindol-1-one]	< 100 nM	100 to 220 µL/min/mg	100 to 220 µL/min/mg
O=C1c2c(cccc2NC2CCS(=O)(=O)C2)CN1CCc1ccc2ccccc2n1 (stereo not drawn) [Example 190, 7-(1,1-Dioxo-tetrahydro-thiophen-3-ylamino)-2-(2-quinolin-2-yl-ethyl)-2,3-dihydro-isoindol-1-one]	100 to 200 nM	100 to 220 µL/min/mg	100 to 220 µL/min/mg
NCc1ccc(-c2cccc3c2C(=O)N(CCc2ccc4ccccc4n2)C3)cc1 [Example 193, 7-(4-Aminomethyl-phenyl)-2-(2-quinolin-2-yl-ethyl)-2,3-dihydro-isoindol-1-one]	100 to 200 nM	< 100 µL/min/mg	< 100 µL/min/mg
CNCc1ccc(-c2cccc3c2C(=O)N(CCc2ccc4ccccc4n2)C3)cc1 [Example 194, 7-(4-Methylaminomethyl-phenyl)-2-(2-quinolin-2-yl-ethyl)-2,3-dihydro-isoindol-1-one]	200 to 500 nM	100 to 220 µL/min/mg	100 to 220 µL/min/mg
Cn1c(CCN2Cc3cccc(-c4ccncc4)c3C2=O)nc2ccccc21 [Example 195, 2-[2-(1-Methyl-1H-benzoimidazol-2-yl)-ethyl]-7-pyridin-4-yl-2,3-dihydro-isoindol-1-one]	< 100 nM	100 to 220 µL/min/mg	> 220 µL/min/mg
Cn1c(CCN2Cc3cccc(-c4cccnc4)c3C2=O)nc2ccccc21 [Example 196, 2-[2-(1-Methyl-1H-benzoimidazol-2-yl)-ethyl]-7-pyridin-3-yl-2,3-dihydro-isoindol-1-one]	< 100 nM	< 100 µL/min/mg	> 220 µL/min/mg
Cn1c(CCN2Cc3cccc(-c4cncnc4)c3C2=O)nc2ccccc21 [Example 197, 2-[2-(1-Methyl-1H-benzoimidazol-2-yl)-ethyl]-7-pyrimidin-5-yl-2,3-dihydro-isoindol-1-one]	< 100 nM	< 100 µL/min/mg	100 to 220 µL/min/mg
O=C1c2cccc(-c3cc[nH]n3)c2CN1CCc1ccc2ccccc2n1 [Example 200, 4-(1H-Pyrazol-3-yl)-2-(2-quinolin-2-yl-ethyl)-2,3-dihydro-isoindol-1-one]	< 100 nM	> 220 µL/min/mg	100 to 220 µL/min/mg
Cn1nccc1-c1cccc2c1CN(CCc1ccc3ccccc3n1)C2=O [Example 202, 4-(2-Methyl-2H-pyrazol-3-yl)-2-(2-quinolin-2-yl-ethyl)-2,3-dihydro-isoindol-1-one trifluoroacetate]	< 100 nM	> 220 µL/min/mg	100 to 220 µL/min/mg
COc1ccc(-c2ccnn2C)c2c1CN(CCc1ccc3ccccc3n1)C2=O [Example 210, 4-Methoxy-7-(2-methyl-2H-pyrazol-3-yl)-2-(2-quinolin-2-yl-ethyl)-2,3-dihydro-isoindol-1-one]	< 100 nM	> 220 µL/min/mg	100 to 220 µL/min/mg
Cn1nccc1-c1ccnc2c1C(=O)N(CCc1nc3ccccc3n1C)C2 [Example 214, 6-[2-(1-Methyl-1H-benzoimidazol-2-yl)-ethyl]-4-(2-methyl-2H-pyrazol-3-yl)-6,7-dihydro-pyrrolo[3,4-b]pyridin-5-one]	100 to 200 nM	< 100 µL/min/mg	< 100 µL/min/mg
O=C1c2c(-c3cncnc3)ccnc2CN1CCc1nc2ccccn2n1 [Example 215, 4-Pyrimidin-5-yl-6-(2-[1,2,4]triazolo[1,5-a]pyridin-2-yl-ethyl)-6,7-dihydro-pyrrolo[3,4-b]pyridin-5-one]	200 to 500 nM	< 100 µL/min/mg	< 100 µL/min/mg
Cn1c(CCN2Cc3nccc(N4CCOCC4)c3C2=O)nc2ccccc21 [Example 216, 6-[2-(1-Methyl-1H-benzoimidazol-2-yl)-ethyl]-4-morpholin-4-yl-6,7-dihydro-pyrrolo[3,4-b]pyridin-5-one]	< 100 nM	< 100 µL/min/mg	< 100 µL/min/mg

Other lines, results leading:

IC50 [1]	microsomal CLint at 0.5 μM [2]	microsomal CLint at 0.5 μM [3]	Compound
< 100 nM	< 100 µL/min/mg	< 100 µL/min/mg	COc1ccc(-c2cncnc2)c2c1CN(CCc1cn3ccccc3n1)C2=O [Example 217, 2-(2-Imidazo[1,2-a]pyridin-2-yl-ethyl)-4-methoxy-7-pyrimidin-5-yl-2,3-dihydro-isoindol-1-one trifluoroacetate]
< 100 nM	< 100 µL/min/mg	< 100 µL/min/mg	COc1ccc(-c2cccnc2)c2c1CN(CCc1cn3ccccc3n1)C2=O [Example 218, 2-(2-Imidazo[1,2-a]pyridin-2-yl-ethyl)-4-methoxy-7-pyridin-3-yl-2,3-dihydro-isoindol-1-one trifluoroacetate]
< 100 nM	< 100 µL/min/mg	< 100 µL/min/mg	O=C1c2c(cccc2-c2ccncc2)CN1CCc1nc2ccccc2s1 [Example 223, 2-(2-Benzothiazol-2-yl-ethyl)-7-pyridin-4-yl-2,3-dihydro-isoindol-1-one trifluoroacetate]
< 100 nM	< 100 µL/min/mg	< 100 µL/min/mg	O=C1c2c(N3CCOCC3)ccnc2CN1CCc1nc2ccccn2n1 [Example 227, 4-Morpholin-4-yl-6-(2-[1,2,4]triazolo[1,5-a]pyridin-2-yl-ethyl)-6,7-dihydro-pyrrolo[3,4-b]pyridin-5-one]
200 to 500 nM	< 100 µL/min/mg	< 100 µL/min/mg	O=C1c2c(cccc2-c2ccncc2)CN1CCc1nc2ccccn2n1 [Example 230, 7-Pyridin-4-yl-2-(2-[1,2,4]triazolo[1,5-a]pyridin-2-yl-ethyl)-2,3-dihydro-isoindol-1-one]
< 100 nM	< 100 µL/min/mg	< 100 µL/min/mg	O=C1c2c(cccc2N2CCS(=O)(=O)CC2)CN1CCc1cn2ccccc2n1 [Example 234, 7-(1,1-Dioxothiomorpholin-4-yl)-2-(2-imidazo[1,2-a]pyridin-2-yl-ethyl)-2,3-dihydro-isoindol-1-one]
< 100 nM	< 100 µL/min/mg	100 to 220 µL/min/mg	O=C1c2c(cccc2-c2cccnc2)CN1CCc1cn2ccccc2n1 [Example 235, 2-(2-Imidazo[1,2-a]pyridin-2-yl-ethyl)-7-pyridin-3-yl-2,3-dihydro-isoindol-1-one]
200 to 500 nM	100 to 220 µL/min/mg	100 to 220 µL/min/mg	O=C1c2c(cccc2-c2ccc(F)cc2)CN1CCc1cn2ccccc2n1 [Example 236, 7-(4-Fluoro-phenyl)-2-(2-imidazol[1,2-a]pyridin-2-yl-ethyl)-2,3-dihydro-isoindol-1-one]
< 100 nM	< 100 µL/min/mg	100 to 220 µL/min/mg	O=C1c2c(cccc2-c2cncnc2)CN1CCc1cn2ccccc2n1 [Example 238, 2-(2-Imidazo[1,2-a]pyridin-2-yl-ethyl)-7-pyrimidin-5-yl-2,3-dihydro-isoindol-1-one]
100 to 200 nM	< 100 µL/min/mg	< 100 µL/min/mg	Cn1nccc1-c1cccc2c1C(=O)N(CCc1cn3ccccc3n1)C2 [Example 239, 2-(2-Imidazo[1,2-a]pyridin-2-yl-ethyl)-7-(2-methyl-2H-pyrazol-3-yl)-2,3-dihydro-isoindol-1-one]
< 100 nM	100 to 220 µL/min/mg	< 100 µL/min/mg	Cc1ncccc1-c1cccc2c1C(=O)N(CCc1cn3ccccc3n1)C2 [Example 240, 2-(2-Imidazo[1,2-a]pyridin-2-yl-ethyl)-7-(2-methyl-pyridin-3-yl)-2,3-dihydro-isoindol-1-one]
< 100 nM	< 100 µL/min/mg	< 100 µL/min/mg	O=C1Cc2ccc(-c3cccc4c3C(=O)N(CCc3cn5ccccc5n3)C4)cc2N1 [Example 241, 6-[2-(2-Imidazo[1,2-a]pyridin-2-yl-ethyl)-3-oxo-2,3-dihydro-1H-isoindol-4-yl]-1,3-dihydro-indol-2-one]
100 to 200 nM	100 to 220 µL/min/mg	< 100 µL/min/mg	O=C1c2c(cccc2-c2cn[nH]c2)CN1CCc1cn2ccccc2n1 [Example 242, 2-(2-Imidazo[1,2-a]pyridin-2-yl-ethyl)-7-(1H-pyrazol-4-yl)-2,3-dihydro-isoindol-1-one]
100 to 200 nM	< 100 µL/min/mg	< 100 µL/min/mg	O=C1c2c(cccc2-c2ccc3nc[nH]c3c2)CN1CCc1cn2ccccc2n1 [Example 244, 7-(3H-Benzoimidazol-5-yl)-2-(2-imidazol[1,2-a]pyridin-2-yl-ethyl)-2,3-dihydro-isoindol-1-one]
